Assay results reported in US20230000876A1, “TREATING CANCERS WITH A CYCLIN-DEPENDENT KINASE INHIBITOR” (Nuvation Bio Inc., priority 2021, published 2023).
Where two headings read alike, the source gives them in different places.

Columns and labels:
MCF-7 tumors = type: in vivo; settings: for T/C / TGI / Tumor Size: PG-D49
Description: The in vivo anti-tumor efficacy of the compound of formula (I) either alone or in combination with fulvestrant on MCF-7 breast tumor model on female Balb/c nude mice was evaluated. The protocol was he same as described in Example 1 with the exception that the dosing schedule of fulvestrant was modified.

ACHN-luc2 = test: CellTiter-Glo anti-proliferation assay, ACHN-luc2; type: cell-based
Description: (§1) The anti-proliferation effect of 2 compounds (the compound of formula (I) and temozolomide) in 7 CNS metastasis cell lines (MOLT-4-luc, Nalm-6-luc, NCI-H460-luc, ACHN-luc2, PC-9-luc, H1975-luc, and KM12-luc) was evaluated.
(§2) The plating of cells and compound treatments are shown below in the plate map (Table 12). One plate was needed for the test of 2 compounds (the compound of formula (I) and temozolomide) in one cell line. The compound of formula (I) was tested from 10 μM, 3-fold serial dilution. Temozolomide was tested from 100 μM, 3-fold serial dilution.
(§3) All the cell lines were maintained in culture conditions at 37° C. in an atmosphere with 5% CO2 in air. The tumor cells were routinely subcultured. The cells growing in an exponential growth phase were harvested and counted for plating.
(§4) Cells were counted by haemocytometer with Trypan blue staining. Next, 135 μL of cell suspension were plated into the assay plates according to the plate map and 135 μL of assay medium into the blank wells. The plates were incubated at 37° C., 5% CO2, 95% air and 100% relative humidity overnight.
(§5) 4.4.4 Compound Plate (10×) Preparation and Compound Treatment • 10× concentrate compound plate preparation: Add 198 μL of assay medium into each well of the V-bottom plate; then transfer 2 μL of the stock compound solution of each concentration from the stock plate. Add 2 μL of DMSO into the Blank and Control wells. Pipette up and down to mix well. This V-plate is designated as the 10× concentrate compound plate. • For day 0 plate, add 15 μL of the DMSO-medium into the Control wells. The final DMSO concentration was 0.1%. Then directly proceed to cell viability assay. • For assay plate, add 15 μL of the compound-medium of each well from the 10× concentrate compound plate into the cells in 96-well assay plate according to the plate map. Add 15 μL of the DMSO-medium into the Blank and Control wells. The final DMSO concentration was 0.1%. • Return the assay plate into incubator and incubate for 6 days.
(§6) The procedures were performed according to the Promega CellTiter-Glo Luminescent Cell Viability Assay Kit manual (Promega-G7573). • The CellTiter-Glo buffer was thawed and equilibrated to room temperature prior to use. • CellTiter-Glo Substrate was equilibrated to room temperature prior to use. • The entire liquid volume of CellTiter-Glo Buffer was transferred into the amber bottle containing CellTiter-Glo Substrate to reconstitute the lyophilized enzyme/substrate mixture. This forms the CellTiter-Glo Reagent. • The contents were mixed by gently vortexing to obtain a homogeneous solution. • The plate was equilibrated and its contents to room temperature for approximately 30 minutes. 75 μL (equal to the half volume of culture medium present in each well) CellTiter-Glo • Reagent was added in each well. Plates were covered with aluminum foil to protect from light. • The contents were mixed for 2 minutes on an orbital shaker to induce cell lysis. • The plate was incubated at room temperature for 20 minutes to stabilize luminescent signal. • Record luminescence on the 2104 EnVision plate reader.
(§7) Inhibition rate (IR) of the tested compounds was determined by the following formula: IR (%)=(1−(RLU compound−RLU day0)/(RLU control−RLU day0))*100%. The inhibitions of different dose of compound were calculated in Excel file, and then were used to plot inhibition curves and evaluate related parameters, such as Min (%), Max (%) and GI50. The data were interpreted by GraphPad Prism.

MOLT-4-luc = test: CellTiter-Glo anti-proliferation assay, MOLT-4-luc; type: cell-based
Description: as §1, §2, §3, §4, §5, §6, §7

xBT474 breast tumor = xBT474 breast tumor model (ER-negative/HER2-positive); settings: Group 5: Compound (I) 30 mg/kg PO QD*28 days
[1] = inhibition rate, 6 days, Compound (I) from 10 μM, temozolomide from 100 μM, 3-fold, 9 points

CC(C)N1CCOc2c(F)cc(-c3nc(Nc4ccc(C5CCN(C)CC5)cn4)ncc3F)cc21 [Compound (I), 5-fluoro-4-(8-fluoro-4-isopropyl-3,4-dihydro-2H-benzo[b][1,4]oxazin-6-yl)-N-(5-(1-methylpiperidin-4-yl)pyridin-2-yl)pyrimidin-2-amine]
T/C (MCF-7 tumors; 10 mg/kg PO QD): 51.74%
TGI (MCF-7 tumors; 10 mg/kg PO QD): 55.83%
Tumor Size (MCF-7 tumors; 10 mg/kg PO QD): 611 mm^3
T/C (MCF-7 tumors; 30 mg/kg PO QD): 14.39%
TGI (MCF-7 tumors; 30 mg/kg PO QD): 99.02%
Tumor Size (MCF-7 tumors; 30 mg/kg PO QD): 170 mm^3
Toxicity (body weight changes) (MCF-7 tumors; MCF-7 tumor-bearing mice, 50 days): did not display toxicity
GI50 (ACHN-luc2; ACHN-luc2, 144 h, 6 days incubation, read-out: Absolute GI50): 47 nM
Max (%) (ACHN-luc2; [1]): 102.9%
Min (%) (ACHN-luc2; [1]): 6.0%
GI50 (MOLT-4-luc; 144 h, 6 days incubation, read-out: Absolute GI50): 200 nM
Max (%) (MOLT-4-luc; [1]): 103.5%
Min (%) (MOLT-4-luc; [1]): −18.4%
Tumor volume (mean ± SEM) (xBT474 breast tumor; Day 0): 146 ± 8 mm^3
Tumor volume (mean ± SEM) (xBT474 breast tumor; Day 4): 240 ± 20 mm^3
Tumor volume (mean ± SEM) (xBT474 breast tumor; Day 7): 250 ± 22 mm^3
Tumor volume (mean ± SEM) (xBT474 breast tumor; Day 11): 347 ± 45 mm^3
Tumor volume (mean ± SEM) (xBT474 breast tumor; Day 14): 408 ± 42 mm^3
Tumor volume (mean ± SEM) (xBT474 breast tumor; Day 18): 490 ± 59 mm^3
Tumor volume (mean ± SEM) (xBT474 breast tumor; Day 21): 549 ± 73 mm^3
Tumor volume (mean ± SEM) (xBT474 breast tumor; Day 25): 576 ± 79 mm^3
Tumor volume (mean ± SEM) (xBT474 breast tumor; Day 28): 617 ± 84 mm^3
Tumor volume (mean ± SEM) (xBT474 breast tumor; Day 32): 658 ± 99 mm^3
Tumor volume (mean ± SEM) (xBT474 breast tumor; Day 35): 721 ± 119 mm^3
Tumor volume (mean ± SEM) (xBT474 breast tumor; Day 39): 685 ± 107 mm^3
Tumor volume (mean ± SEM) (xBT474 breast tumor; Day 42): 694 ± 120 mm^3
Tumor volume (mean ± SEM) (xBT474 breast tumor; Day 46): 707 ± 116 mm^3
